The target in one data set is Integrin alpha-V/beta-3 (Homo sapiens, UniProt P05106+P06756). Kind of data set: Inhibitory concentration against alphaV-beta3 integrin. Format: protein-complex assay.
The nature of data set [1]: Half life in mice after intravenous dosage. Conditions: mouse, in vivo. It is filed as ADME, organism-based.
The nature of data set [2]: Bioavailability in mice after […] dosage. It is filed as ADME, organism-based. Conditions: mouse, in vivo.
Data set [3] is described as follows: Clearance in mice after intravenous dosage. Conditions: mouse, in vivo. Format: ADME, organism-based.

The IC50 is the concentration that gives 50% inhibition. The low end stands for higher potency, the high end for lower potency. As usually defined, the half-life is the time in which the quantity being followed falls by half. A low value points to fast loss. Broadly, the bioavailability is dose-corrected exposure relative to a reference, in per cent. High values mean much systemic uptake, low ones little systemic uptake. As a reminder, the clearance is a measure of how efficiently the substance is removed, as volume per time. Low values mean inefficient removal, high ones efficient removal.

Chain of Integrin alpha-V/beta-3 (P05106 27-788 limits assumed): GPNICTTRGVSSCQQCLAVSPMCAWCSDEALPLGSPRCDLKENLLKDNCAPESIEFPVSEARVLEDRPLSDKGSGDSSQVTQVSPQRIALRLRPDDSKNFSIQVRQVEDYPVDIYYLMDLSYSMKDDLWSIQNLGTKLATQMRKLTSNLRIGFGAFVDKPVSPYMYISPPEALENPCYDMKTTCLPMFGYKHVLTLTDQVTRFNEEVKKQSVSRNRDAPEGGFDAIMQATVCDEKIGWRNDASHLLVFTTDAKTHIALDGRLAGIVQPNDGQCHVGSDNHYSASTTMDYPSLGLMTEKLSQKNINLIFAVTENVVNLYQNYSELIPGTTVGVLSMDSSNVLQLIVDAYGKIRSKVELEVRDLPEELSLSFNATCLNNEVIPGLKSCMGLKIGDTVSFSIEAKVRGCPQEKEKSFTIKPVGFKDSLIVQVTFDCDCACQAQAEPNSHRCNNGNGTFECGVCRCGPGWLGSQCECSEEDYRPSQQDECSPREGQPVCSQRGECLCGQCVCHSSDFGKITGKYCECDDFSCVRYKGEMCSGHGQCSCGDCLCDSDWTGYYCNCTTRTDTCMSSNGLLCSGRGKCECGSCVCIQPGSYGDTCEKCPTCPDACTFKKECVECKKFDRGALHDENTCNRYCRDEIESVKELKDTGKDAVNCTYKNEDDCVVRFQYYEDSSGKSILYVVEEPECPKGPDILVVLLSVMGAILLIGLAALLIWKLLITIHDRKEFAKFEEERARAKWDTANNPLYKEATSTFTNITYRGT
Chain of Integrin alpha-V/beta-3 (P06756 31-889 limits assumed): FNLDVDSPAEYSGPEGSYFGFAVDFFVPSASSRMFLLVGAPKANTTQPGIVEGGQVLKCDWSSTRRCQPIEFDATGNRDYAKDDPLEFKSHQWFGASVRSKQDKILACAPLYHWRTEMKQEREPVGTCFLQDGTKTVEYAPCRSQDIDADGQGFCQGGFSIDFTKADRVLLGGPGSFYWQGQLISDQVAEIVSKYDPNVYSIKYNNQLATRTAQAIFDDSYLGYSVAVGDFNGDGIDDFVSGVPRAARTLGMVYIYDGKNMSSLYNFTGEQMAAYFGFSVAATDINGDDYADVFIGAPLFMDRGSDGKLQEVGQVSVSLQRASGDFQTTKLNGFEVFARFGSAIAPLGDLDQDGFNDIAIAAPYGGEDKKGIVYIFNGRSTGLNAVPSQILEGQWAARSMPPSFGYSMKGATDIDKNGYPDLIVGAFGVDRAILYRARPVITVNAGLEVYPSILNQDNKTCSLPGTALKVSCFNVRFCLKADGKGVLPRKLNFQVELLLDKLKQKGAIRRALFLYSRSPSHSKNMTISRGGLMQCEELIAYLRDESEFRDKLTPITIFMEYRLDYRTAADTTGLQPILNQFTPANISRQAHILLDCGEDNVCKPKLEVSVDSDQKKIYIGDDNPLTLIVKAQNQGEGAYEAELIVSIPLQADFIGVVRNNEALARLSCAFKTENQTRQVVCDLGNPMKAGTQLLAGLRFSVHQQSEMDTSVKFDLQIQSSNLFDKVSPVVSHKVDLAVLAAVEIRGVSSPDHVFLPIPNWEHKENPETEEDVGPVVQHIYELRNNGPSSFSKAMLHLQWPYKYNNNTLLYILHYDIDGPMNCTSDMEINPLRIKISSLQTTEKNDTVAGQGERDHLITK
Chain of Integrin alpha-V/beta-3 (P06756 891-1048 limits assumed): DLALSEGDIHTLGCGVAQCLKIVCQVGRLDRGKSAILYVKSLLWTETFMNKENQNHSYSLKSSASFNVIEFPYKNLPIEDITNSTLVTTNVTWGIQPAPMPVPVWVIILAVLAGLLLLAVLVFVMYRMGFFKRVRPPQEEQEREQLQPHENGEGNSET

For the molecule `COc1cccc(C(CC(=O)O)n2ccc3cc(OCCc4ccc5c(n4)NCCC5)ccc32)c1` (centres undefined), the concentration for half-maximal inhibition (IC50) on Integrin alpha-V/beta-3 amounted to 0.8 nM. Turning to `COc1ccc(C(CC(=O)O)n2ccc3cc(OCCc4ccc5c(n4)NCCC5)ccc32)cc1` (centres undefined), the IC50 against Integrin alpha-V/beta-3 was found to be 0.7 nM. As to `O=C(O)CC(c1ccccc1Cl)n1ccc2cc(OCCc3ccc4c(n3)NCCC4)ccc21` (centres undefined), at Integrin alpha-V/beta-3, inhibition was half-maximal at 55 nM (IC50). The same measure, in the same setting: to `N#Cc1cncc(C(CC(=O)O)n2ccc3cc(OCCc4ccc5c(n4)NCCC5)ccc32)c1` (centres undefined) belongs 0.26 nM; to `O=C(O)CC(c1cccnc1)n1ccc2cc(OCCc3ccc4c(n3)NCCC4)ccc21` (centres undefined), 0.25 nM. `O=C(O)CC(c1ccc2c(c1)OCO2)n1ccc2cc(OCCc3ccc4c(n3)NCCC4)ccc21` (centres undefined) returned a half-inhibitory concentration (IC50) against Integrin alpha-V/beta-3 of 0.38 nM. The same molecule had a half-life in data set [1] of 1.5 h. In data set [2], this molecule had a bioavailability of 73%. The molecule also came in with a clearance in data set [3] of 13 mL/min/kg. At Integrin alpha-V/beta-3, `O=C(O)C(Cc1ccccc1)Cn1ccc2cc(OCCCNc3ccccn3)ccc21` (centres undefined) registered an IC50 of 1900 nM. `CCCC(CC(=O)O)n1ccc2cc(CCCc3ccc4c(n3)NCCC4)ccc21` (centres undefined) returned an IC50 against Integrin alpha-V/beta-3 of 23 nM.

Take `O=C(O)CC(c1cccc(Cl)c1)n1ccc2cc(OCCc3ccc4c(n3)NCCC4)ccc21` (centres undefined): the IC50 at Integrin alpha-V/beta-3 was found to be 0.5 nM. The molecule `O=C(O)CC(c1ccccc1)n1ccc2cc(OCCONC3=NCCN3)ccc21` (centres undefined) displayed an IC50 against Integrin alpha-V/beta-3 of 200 nM.

At Integrin alpha-V/beta-3, `O=C(O)c1ccccc1-n1ccc2cc(OCCCNc3ccccn3)ccc21` registered an IC50 of more than 20000 nM. The same measure, in the same setting: to `O=C(O)CC(c1ccc2c(c1)OCO2)n1ccc2cc(OCCc3ccc4c(n3)NCCO4)ccc21` (centres undefined) belongs 8 nM; to `CCCC(CC(=O)O)n1ccc2cc(NC(=O)Cc3ccc4c(n3)NCCC4)ccc21` (centres undefined), 78 nM; to `O=C(O)CC(c1ccccn1)n1ccc2cc(OCCc3ccc4c(n3)NCCC4)ccc21` (centres undefined), 1.2 nM. At Integrin alpha-V/beta-3, `O=C(O)CC(c1ccc(F)cc1)n1ccc2cc(OCCc3ccc4c(n3)NCCC4)ccc21` (centres undefined) showed an IC50 of 0.7 nM.

`COc1ccccc1C(CC(=O)O)n1ccc2cc(OCCc3ccc4c(n3)NCCC4)ccc21` (centres undefined) displayed a half-maximal inhibitory concentration (IC50) at Integrin alpha-V/beta-3 of 1.1 nM. `O=C(O)c1ccc(-n2ccc3cc(OCCCNc4ccccn4)ccc32)cc1` registered an IC50 against Integrin alpha-V/beta-3 of more than 20000 nM.

Take `O=C(O)CC(c1cccc2ccccc12)n1ccc2cc(OCCc3ccc4c(n3)NCCC4)ccc21` (centres undefined): the half-maximal inhibitory concentration (IC50) against Integrin alpha-V/beta-3 is 37 nM. Still for that read-out and setting: to `O=C(O)CC(c1cnc2ccccc2c1)n1ccc2cc(OCCc3ccc4c(n3)NCCC4)ccc21` (centres undefined) belongs 0.38 nM; to `CNc1cccc(CCOc2ccc3c(ccn3CCC(=O)O)c2)n1`, 36 nM; to `O=C(O)CC(c1cccnc1)n1ccc2cc(OCC(F)(F)c3ccc4c(n3)NCCC4)ccc21` (centres undefined), 130 nM. In turn, `CS(=O)(=O)c1cncc(C(CC(=O)O)n2ccc3cc(OCCc4ccc5c(n4)NCCC5)ccc32)c1` (centres undefined) had an IC50 on Integrin alpha-V/beta-3 of 0.46 nM.

The molecule `COc1cncc(C(CC(=O)O)n2ccc3cc(OCCc4ccc5c(n4)NCCC5)ccc32)c1` (centres undefined) displayed a concentration for half-maximal inhibition (IC50) on Integrin alpha-V/beta-3 of 0.25 nM. For the molecule `CS(=O)(=O)c1ccc(C(CC(=O)O)n2ccc3cc(OCCc4ccc5c(n4)NCCC5)ccc32)cn1` (centres undefined), it took 0.3 nM to reach half-maximal inhibition against Integrin alpha-V/beta-3 (IC50). Same read-out and setting: the figure for `CCCC(CC(=O)O)n1ccc2cc(OCCc3ccc4c(n3)NCCC4)ccc21` (centres undefined) is 5 nM; for `O=C(O)CC(c1ccc(-c2ccccc2)cc1)n1ccc2cc(OCCc3ccc4c(n3)NCCC4)ccc21` (centres undefined) it is 40 nM. On the same count and under the same terms, the figure for `CC(Cn1ccc2cc(OCCCNc3ccccn3)ccc21)C(=O)O` (centres undefined) is 460 nM; for `O=C(O)CC(c1ccncc1)n1ccc2cc(OCCc3ccc4c(n3)NCCC4)ccc21` (centres undefined) it is 0.9 nM; for `O=C(O)CC(c1ccccc1)n1ccc2cc(OCCc3ccc4c(n3)NCCC4)ccc21` (centres undefined) it is 1 nM.

Turning to `O=C(O)CC(c1ccc2ccccc2c1)n1ccc2cc(OCCc3ccc4c(n3)NCCC4)ccc21` (centres undefined), the IC50 at Integrin alpha-V/beta-3 came out at 37 nM.

On to `CCCC(Cn1ccc2cc(OCCCNc3ccccn3)ccc21)C(=O)O` (centres undefined), for which the half-maximal inhibitory concentration (IC50) at Integrin alpha-V/beta-3 worked out at 2000 nM.

Values taken from ChEMBL document CHEMBL1141928, “Non-peptidic alpha(v)beta3 antagonists containing indol-1-yl propionic acids” (Bioorg Med Chem Lett, 2005).
